In brackets after ≈: the same amount, converted by molar mass.
What was measured:
[1] = Solubility in 7 aqueous pH buffers and bio-relevant fluids at 37° C. (HPLC of supernatant; residual solids by XRPD); type: physicochemical; details: for solubility at 2 h / solubility at 24 h: thermodynamic from solid
Protocol: 20 mg of the free base Form A of Compound I was weighed into a 20 mL glass vial. Amounts of the salts equivalent to 20 mg anhydrous free base were weighed into a glass vial. 10 mL of solubility medium was added. The resulting suspensions/solutions were stirred at 37° C. at 400 rpm and sampled at 2 hours and at 24 hours, respectively. The samples were centrifuged at 37° C. at 14,000 rpm for 5 min. Supernatants were analyzed by HPLC and pH meter for solubility and pH value, respectively. Residual solids (wet cakes) from the 24 hours samples were also characterized by XRPD to determine physical form.
Residual solids after the solubility test were analyzed by XRPD.

[2] = Dynamic vapor sorption (DVS) analysis at 25° C.; type: physicochemical
Protocol: In one embodiment, the crystalline forms are characterized by Dynamic Vapor Sorption (DVS). The DVS profile is typically expressed by a diagram plotting the sample relative humidity (RH) versus the change in mass (%). The DVS profile provides information on hygroscopicity of the crystalline form at different RH conditions.
A DVS (dynamic vapor sorption) analysis at 25° C. was carried out on Form A** of Compound I benzenesulfonate salt as shown in FIG. 3D.

[3] = ES1, pH 1.2 HCl solution (0.1N), 37° C.
[4] = ES2, pH 4.5 acetate buffer (50 mM), 37° C.
[5] = ES3, pH 6.8 phosphate buffer (50 mM), 37° C.
[6] = ES4, pH 7.4 phosphate buffer (50 mM), 37° C.
[7] = aqueous buffer, ES2, pH 4.5 acetate buffer (50 mM), 37° C.
[8] = aqueous buffer, ES3, pH 6.8 phosphate buffer (50 mM), 37° C.
[9] = aqueous buffer, ES4, pH 7.4 phosphate buffer (50 mM), 37° C.
[10] = simulated gastric fluid, ES1, pH 1.2 HCl solution (0.1N), 37° C.
[11] = simulated gastric fluid, ES5, SGF, pH 2.0, 37° C.

SMILES	pH of supernatant, solubility for 2 h (pH) [1, 3]	pH of supernatant, solubility for 24 h (pH) [1, 3]	pH of supernatant, solubility for 2 h (pH) [1, 4]	pH of supernatant, solubility for 24 h (pH) [1, 4]	pH of supernatant, solubility for 2 h (pH) [1, 5]	pH of supernatant, solubility for 24 h (pH) [1, 5]	pH of supernatant, solubility for 2 h (pH) [1, 6]	pH of supernatant, solubility for 24 h (pH) [1, 6]	pH of supernatant, solubility for 2 h (pH) ([1]; ES5, SGF, pH 2.0, 37° C.)	pH of supernatant, solubility for 24 h (pH) ([1]; ES5, SGF, pH 2.0, 37° C.)	pH of supernatant, solubility for 2 h (pH) ([1]; ES6, FaSSIF-v1, pH 6.5, 37° C.)	pH of supernatant, solubility for 24 h (pH) ([1]; ES6, FaSSIF-v1, pH 6.5, 37° C.)	pH of supernatant, solubility for 2 h (pH) ([1]; ES7, FeSSIF-v1, pH 5.0, 37° C.)	pH of supernatant, solubility for 24 h (pH) ([1]; ES7, FeSSIF-v1, pH 5.0, 37° C.)	hygroscopicity / water sorption behavior (DVS) [2]	solid form of the sample after the DVS test [2]	water uptake (DVS) ([2]; from 40% to 95% RH)	Solubility for 2 h [1, 3]	Solubility for 24 h [1, 3]	Solubility for 2 h [1, 4]	further results
C=CC(=O)NCC(=O)N1CCN(Cc2cc3c(N4CCOCC4)nc(-c4cnc(NC(=O)OC)cc4C(F)(F)F)nn3c2)CC1 [Form A of Compound I, methyl (5-(6-((4-(acryloylglycyl)piperazin-1-yl)methyl)-4-morpholinopyrrolo[2,1-f][1,2,4]triazin-2-yl)-4-(trifluoromethyl)pyridin-2-yl) carbamate]	(1.2)	(1.0)	(4.5)	(4.4)	(6.8)	(6.7)	(7.5)	(7.4)	(2.0)	(1.9)	(6.5)	(6.5)	(5.0)	(5.0)	slightly hygroscopic	still the free base Pattern A	about 1.4%				solubility at 2 h [1, 7]: 200 µg/mL (≈ 317 µM); solubility at 24 h [1, 7]: 300 µg/mL (≈ 475 µM); solubility at 2 h [1, 8]: 2.9 µg/mL (≈ 4.59 µM); solubility at 24 h [1, 8]: 5.1 µg/mL (≈ 8.07 µM); solubility at 2 h [1, 9]: 2.2 µg/mL (≈ 3.48 µM); solubility at 24 h [1, 9]: 3.8 µg/mL (≈ 6.02 µM); solubility at 2 h [1, 10]: 1200 µg/mL (≈ 1900 µM); solubility at 24 h [1, 10]: 1000 µg/mL (≈ 1580 µM); solubility at 2 h [1, 11]: > 2000 µg/mL; solubility at 24 h [1, 11]: > 2000 µg/mL; solubility at 2 h ([1]; ES6, FaSSIF-v1, pH 6.5, 37° C.): 9.4 µg/mL (≈ 14.9 µM); solubility at 24 h ([1]; ES6, FaSSIF-v1, pH 6.5, 37° C.): 11.5 µg/mL (≈ 18.2 µM); solubility at 2 h ([1]; ES7, FeSSIF-v1, pH 5.0, 37° C.): 600 µg/mL (≈ 950 µM); solubility at 24 h ([1]; ES7, FeSSIF-v1, pH 5.0, 37° C.): 600 µg/mL (≈ 950 µM)
C=CC(=O)NCC(=O)N1CCN(Cc2cc3c(N4CCOCC4)nc(-c4cnc(NC(=O)OC)cc4C(F)(F)F)nn3c2)CC1.O=C(O)/C=C\C(=O)O [Form B* of Compound I maleate salt, Methyl (5-(6-((4-(acryloylglycyl)piperazin-1-yl)methyl)-4-morpholinopyrrolo[2,1-f][1,2,4]triazin-2-yl)-4-(trifluoromethyl)pyridin-2-yl) carbamate maleate salt]	(1.3)	(1.3)	(4.5)	(4.5)	(6.6)	(6.6)	(7.3)	(7.3)	(2.0)	(2.0)	(6.1)	(6.1)	(5.0)	(5.0)	nearly monotonic water sorption-desorption behavior depending on RH	still Form B* of Compound I maleate salt		1400 µg/mL	1500 µg/mL	>2000 µg/mL	Solubility for 24 h [1, 4]: 300 µg/mL; Solubility for 2 h [1, 5]: 6.6 µg/mL; Solubility for 24 h [1, 5]: 4.7 µg/mL; Solubility for 2 h [1, 6]: 1.5 µg/mL; Solubility for 24 h [1, 6]: 1.4 µg/mL; Solubility for 2 h ([1]; ES5, SGF, pH 2.0, 37° C.): >2000 µg/mL; Solubility for 24 h ([1]; ES5, SGF, pH 2.0, 37° C.): >2000 µg/mL; Solubility for 2 h ([1]; ES6, FaSSIF-v1, pH 6.5, 37° C.): 22.9 µg/mL; Solubility for 24 h ([1]; ES6, FaSSIF-v1, pH 6.5, 37° C.): 16.2 µg/mL; Solubility for 2 h ([1]; ES7, FeSSIF-v1, pH 5.0, 37° C.): 1100 µg/mL; Solubility for 24 h ([1]; ES7, FeSSIF-v1, pH 5.0, 37° C.): 1000 µg/mL; water uptake (DVS) ([2]; from 40% to 90% RH): 2.7%
C=CC(=O)NCC(=O)N1CCN(Cc2cc3c(N4CCOCC4)nc(-c4cnc(NC(=O)OC)cc4C(F)(F)F)nn3c2)CC1.O=S(=O)(O)c1ccccc1 [Methyl (5-(6-((4-(acryloylglycyl)piperazin-1-yl)methyl)-4-morpholinopyrrolo[2,1-f][1,2,4]triazin-2-yl)-4-(trifluoromethyl)pyridin-2-yl) carbamate benzenesulfonate salt]	(1.2)	(1.0)	(4.5)	(4.4)	(6.7)	(6.6)	(7.3)	(7.3)	(2.0)	(1.8)	(6.3)	(6.2)	(5.0)	(4.9)	slightly hygroscopic	still the Form A** of Compound I benzenesulfonate salt	about 1.4%	300 µg/mL	400 µg/mL	200 µg/mL	solubility compared among forms ([1]; 37° C., 2 h and 24 h, 7 aqueous pH buffers and bio-relevant fluids): overall lower solubility than that of Form A of Compound I; Solubility for 24 h [1, 4]: 300 µg/mL; Solubility for 2 h [1, 5]: 8.5 µg/mL; Solubility for 24 h [1, 5]: 6.9 µg/mL; Solubility for 2 h [1, 6]: 5.7 µg/mL; Solubility for 24 h [1, 6]: 4.1 µg/mL; Solubility for 2 h ([1]; ES5, SGF, pH 2.0, 37° C.): 200 µg/mL; Solubility for 24 h ([1]; ES5, SGF, pH 2.0, 37° C.): 300 µg/mL; Solubility for 2 h ([1]; ES6, FaSSIF-v1, pH 6.5, 37° C.): 19.6 µg/mL; Solubility for 24 h ([1]; ES6, FaSSIF-v1, pH 6.5, 37° C.): 18.6 µg/mL; Solubility for 2 h ([1]; ES7, FeSSIF-v1, pH 5.0, 37° C.): 700 µg/mL; Solubility for 24 h ([1]; ES7, FeSSIF-v1, pH 5.0, 37° C.): 800 µg/mL

From patent US20250197408A1, “CRYSTALLINE FORMS AND SALTS OF A PI3K INHIBITOR AND METHODS OF MAKING AND METHODS OF USE THEREOF” (Totus Medicines Inc., priority 2022, published 2025)
